Reference: US20030023101A1, “Method for production of maleic anhydride” (priority 2001, published 2003)

Key:
[1] = 20° C., normal pressure (1013 hPa); Chemical Handbook (Maruzen), Beilstein Online; cited from earlier work
[2] = Maximum dissolving concentration of organic solvent in water (Referential Example 1); assay type: physicochemical; conditions: solvent as solute in 80 g purified water, 20° C., visual observation
Description: One species of organic solvent or a mixture of two or more species of solvent to be used in this invention was selected by the following method. In a tightly closable glass vessel measuring 100 ml in inner volume and furnished with a lid, 80 g of purified water kept at a temperature of 20° C. was placed and stirred with a stirrer and meanwhile a given organic solvent or solvent mixture was added dropwise to the stirred water. The state of solution consequently assumed after one hour's standing was visually observed. When any residue of the solute was found in the solution, the confirmation of the solubility mentioned above was repeated, with the quantity of dropwise addition per round decreased. The minimum quantity of the organic solvent or the solvent mixture as the solute to be used for the dropwise addition was set at 0.02 g. […] Specifically, the magnitude found by the following formula,
(§1) Maximum dissolving concentration (% by weight)={Solute/(Solute+Solvent)}×100
is the maximum dissolving concentration contemplated by this invention. […] The present example concerns computation of the maximum dissolving concentration of a given solute in 80 g of a solvent in accordance with the formula mentioned above. The maximum dissolving concentration was determined at a solution temperature of 20° C. Incidentally, when two or more species of organic solvent are mixed and used in the distillation for azeotropic dehydration, the maximum dissolving concentration of the mixture is determined by the method described above.

[3] = Maximum dissolving concentration of maleic acid in the solvent (Referential Example 2); assay type: physicochemical; conditions: maleic acid as solute in 80 g solvent, 20° C., insoluble = residue even at 0.01 g
Description: (§2) In a tightly closable glass vessel measuring 100 ml in inner volume and furnished with a lid, 80 g of a given solvent kept at a temperature of 20° C. was placed and stirred with a stirrer and meanwhile maleic acid or fumaric acid of the special reagent grade as defined in the paragraph covering the determination of maximum dissolution concentration was added to the stirred solvent. The state of solution consequently assumed was visually confirmed. When the solute left any residue behind in the solution even after one hour's stirring, the sample was reported as insoluble. When the residue of the solute was found, the confirmation of the maximum dissolving concentration mentioned above was repeated, with the quantity of addition per round decreased. The minimum quantity of addition was set at 0.01 g. Thus, the maximum quantity of dropwise addition (weight of solute) which was recognized to have given rise to no residue of elute was determined and computed as the maximum dissolution concentration in 80 g of a given solvent. Specifically, the magnitude found by the following formula,
as §1
(§3) is the maximum dissolving concentration contemplated by this invention. When the elute left any residue behind in the solution even at the minimum quantity of dropwise addition of 0.01 g ([…]), the sample was reported as insoluble. Incidentally, the maximum dissolution concentration was measured at a solution temperature of 20° C.

[4] = Maximum dissolving concentration of fumaric acid in the solvent (Referential Example 2); assay type: physicochemical; conditions: fumaric acid as solute in 80 g solvent, 20° C., insoluble = residue even at 0.01 g
Description: as §2, §1, §3

SMILES | Maximum dissolving concentration of the azeotropic solvent (1) in water [1] | Maximum dissolving concentration in water [2] | Maximum dissolving concentration in solvent, Maleic acid [3] | Maximum dissolving concentration in solvent, Fumaric acid [4] | further results
CCCCC(CC)CO (stereo not drawn) [2-ethyl-1-hexnol] | 0.10 % by weight |  |  |  | 
CCCCCC(C)=O [2-heptanone] | 0.44 % by weight |  |  |  | 
CC(C)CC(=O)CC(C)C [DIBK, diisobutyl ketone] |  | 0.05 % by weight | 0.62 % by weight | Insoluble | 
Cc1ccccc1C [o-Xylene, o-xylene] |  | 0.02 % by weight | Insoluble | Insoluble | Maximum dissolving concentration in water ([2]; listed as o-xylene): low solubility in water; Maximum dissolving concentration in solvent, Maleic acid ([3]; listed as o-xylene): did not dissolve; Maximum dissolving concentration in solvent, Fumaric acid ([4]; listed as o-xylene): did not dissolve
CCC(=O)CC [3-pentanone] | 4.6 % by weight |  |  |  | 
CCCCC(C)=O [2-hexanone] | 1.75 % by weight |  |  |  | 
CCCC(=O)CC [3-hexnaone] | 1.57 % by weight |  |  |  | 
CCCCCOC(C)=O [amyl acetate] | 0.25 % by weight |  |  |  | 
CC(=O)CC(C)C [MIBK, methyl isobutylketone] | 1.91 % by weight | 1.85 % by weight | 4.14 % by weight | 0.14 % by weight | 
C=CCOC(C)=O [allyl acetate] | 2.8 % by weight |  |  |  | 
CC(C)C(=O)C(C)C [DIPK, diisopropylketone] | 0.43 % by weight | 0.41 % by weight | 1.22 % by weight | 0.02 % by weight | 
